# Like-named read-outs stand apart in the source and are kept apart here.
# Legend:
# CR6258 Tumor = experiment: In vivo PDX model, Compound 478 and Cetuximab (Table 5a); parameters: species or system nude/nude mice; conditions: for Average Tumor Volumes: CR6258, Cetuximab 0.25 mg/kg i.p. every third day, single or combined
# Experimental: (§1) Immunocompromised nude/nude mice were inoculated in the right hind flank with cells or patient derived tumor samples harboring a KRas G12C mutation. […] The first group was administered vehicle only. […] The fourth group was administered the single agent dose of the KRas G12C inhibitor in combination with the single agent dose of the pan ErbB family inhibitor. […] Tumor volumes were measured using a caliper every two-three days and tumor volumes were calculated by the formula: 0.5×(Length×Width)^2.
# (§2) In a related experiment, on Day 1, two sets of 20 nude/nude mice each were inoculated in the right hind limb with 5×10^6 CR6256 cells or CR2528 cells (PDX models). […] Tumor volumes were measured at pre-specified days set forth below.
# [1] = system: CR2528 cells (PDX models); experiment: In vivo PDX model, Compound 478 and Cetuximab (Table 5b); parameters: species or system nude/nude mice; conditions: for Average Tumor Volumes: CR2528, Cetuximab 0.25 mg/kg i.p. every third day, single or combined
# Experimental: as §1, §2
# KYSE-410 cells [2] = conditions: KYSE-410-implanted mice; Day 61 (Treatment Day 50); single agent 100 mg/kg p.o. daily; Table 6a
# Experimental: as §1
# (§3) Tumor volumes were measured at pre-specified days set forth below.
# H2122 cells [3] = conditions: H2122-implanted mice; Day 46 (Treatment Day 35); single agent 100 mg/kg p.o. daily; Table 6b
# Experimental: as §1, §3
# LU6405 cells (PDX model) = experiment: In vivo PDX model, Compound 478 and Afatinib (Table 4c); conditions: for Average Tumor Volumes: LU6405, Afatinib 12.5 mg/kg, single or combined
# Experimental: as §1, §3
# H2122 cells [4] = experiment: In vivo tumor model, Compound 478 and Afatinib (Table 4a); conditions: for Average Tumor Volumes: H2122, Afatinib 12.5 mg/kg, single or combined
# Experimental: as §1, §3
# KYSE-410 cells [5] = experiment: In vivo tumor model, Compound 478 and Afatinib (Table 4b); conditions: for Average Tumor Volumes: KYSE-410, Afatinib 12.5 mg/kg, single or combined
# Experimental: as §1, §3
# [6] = Day 11 post implant (treatment start), Compound 478 100 mg/kg p.o. daily
# [7] = Day 11 post implant (treatment start), p.o. daily: Compound 478 100 mg/kg
# [8] = Day 14 post implant, p.o. daily from Day 11: Compound 478 100 mg/kg
# [9] = Day 18 post implant, p.o. daily from Day 11: Compound 478 100 mg/kg
# [10] = Day 21 post implant, p.o. daily from Day 11: Compound 478 100 mg/kg
# [11] = Day 25 post implant, p.o. daily from Day 11: Compound 478 100 mg/kg
# [12] = Day 28 post implant, p.o. daily from Day 11: Compound 478 100 mg/kg
# [13] = Day 32 post implant, p.o. daily from Day 11: Compound 478 100 mg/kg
# [14] = Day 34 post implant, p.o. daily from Day 11: Compound 478 100 mg/kg
structure (smiles),measurement,setting,value
C=C(F)C(=O)N1CCN(c2nc(OC[C@@H]3CCCN3C)nc3c2CCN(c2cccc4cccc(Cl)c24)C3)C[C@@H]1CC#N [Compound 478],tumor regression,"CR6258 Tumor; CR6258-implanted mice, Day 37 (Treatment Day 27), Compound 478 100 mg/kg p.o. daily alone or with cetuximab 0.25 mg/kg i.p. every three days",71%
same,Average Tumor Volumes,CR6258 Tumor; [6],190.54 mm^3
same,Average Tumor Volumes,"CR6258 Tumor; Day 18 post implant, from Day 11: Compound 478 100 mg/kg p.o. daily",256.91 mm^3
same,Average Tumor Volumes,"CR6258 Tumor; Day 25 post implant, from Day 11: Compound 478 100 mg/kg p.o. daily",201.00 mm^3
same,Average Tumor Volumes,"CR6258 Tumor; Day 28 post implant, from Day 11: Compound 478 100 mg/kg p.o. daily",128.77 mm^3
same,Average Tumor Volumes,"CR6258 Tumor; Day 32 post implant, from Day 11: Compound 478 100 mg/kg p.o. daily",77.44 mm^3
same,Average Tumor Volumes,"CR6258 Tumor; Day 35 post implant, from Day 11: Compound 478 100 mg/kg p.o. daily",56.15 mm^3
same,Average Tumor Volumes,"CR6258 Tumor; Day 39 post implant, from Day 11: Compound 478 100 mg/kg p.o. daily",44.24 mm^3
same,Average Tumor Volumes,"CR6258 Tumor; Day 42 post implant, from Day 11: Compound 478 100 mg/kg p.o. daily",41.80 mm^3
same,Average Tumor Volumes,"CR6258 Tumor; Day 46 post implant, from Day 11: Compound 478 100 mg/kg p.o. daily",29.92 mm^3
same,Average Tumor Volumes,"CR6258 Tumor; Day 49 post implant, from Day 11: Compound 478 100 mg/kg p.o. daily",19.79 mm^3
same,single-agent anti-tumor activity,"[1]; CR2528-implanted mice, Day 34 (Treatment Day 24), 100 mg/kg p.o. daily",no single-agent anti-tumor activity
same,Average Tumor Volumes,[1]; [6],265.11 mm^3
same,Average Tumor Volumes,"[1]; Day 14 post implant, from Day 11: Compound 478 100 mg/kg p.o. daily",350.48 mm^3
same,Average Tumor Volumes,"[1]; Day 17 post implant, from Day 11: Compound 478 100 mg/kg p.o. daily",434.64 mm^3
same,Average Tumor Volumes,"[1]; Day 20 post implant, from Day 11: Compound 478 100 mg/kg p.o. daily",656.73 mm^3
same,Average Tumor Volumes,"[1]; Day 24 post implant, from Day 11: Compound 478 100 mg/kg p.o. daily",950.91 mm^3
same,Average Tumor Volumes,"[1]; Day 27 post implant, from Day 11: Compound 478 100 mg/kg p.o. daily",1252.80 mm^3
same,Average Tumor Volumes,"[1]; Day 31 post implant, from Day 11: Compound 478 100 mg/kg p.o. daily",1713.13 mm^3
same,Average Tumor Volumes,"[1]; Day 34 post implant, from Day 11: Compound 478 100 mg/kg p.o. daily",2757.63 mm^3
same,tumor growth inhibition,KYSE-410 cells [2],71%
same,tumor regression,H2122 cells [3],3%
same,Average Tumor Volumes,LU6405 cells (PDX model); [7],256.06 mm^3
same,Average Tumor Volumes,LU6405 cells (PDX model); [8],308.98 mm^3
same,Average Tumor Volumes,LU6405 cells (PDX model); [9],324.46 mm^3
same,Average Tumor Volumes,LU6405 cells (PDX model); [10],329.09 mm^3
same,Average Tumor Volumes,LU6405 cells (PDX model); [11],310.21 mm^3
same,Average Tumor Volumes,LU6405 cells (PDX model); [12],290.88 mm^3
same,Average Tumor Volumes,LU6405 cells (PDX model); [13],257.34 mm^3
same,Average Tumor Volumes,LU6405 cells (PDX model); [14],249.19 mm^3
same,tumor growth inhibition,"LU6405 cells (PDX model); LU6405-implanted mice, Day 34 (Treatment Day 24), single agent 100 mg/kg p.o. daily",96%
same,Average Tumor Volumes,H2122 cells [4]; [7],325.05 mm^3
same,Average Tumor Volumes,"H2122 cells [4]; Day 13 post implant, p.o. daily from Day 11: Compound 478 100 mg/kg",339.80 mm^3
same,Average Tumor Volumes,"H2122 cells [4]; Day 15 post implant, p.o. daily from Day 11: Compound 478 100 mg/kg",337.58 mm^3
same,Average Tumor Volumes,H2122 cells [4]; [9],381.78 mm^3
same,Average Tumor Volumes,"H2122 cells [4]; Day 20 post implant, p.o. daily from Day 11: Compound 478 100 mg/kg",462.40 mm^3
same,Average Tumor Volumes,"H2122 cells [4]; Day 22 post implant, p.o. daily from Day 11: Compound 478 100 mg/kg",479.48 mm^3
same,Average Tumor Volumes,H2122 cells [4]; [11],492.76 mm^3
same,Average Tumor Volumes,"H2122 cells [4]; Day 27 post implant, p.o. daily from Day 11: Compound 478 100 mg/kg",541.06 mm^3
same,Average Tumor Volumes,"H2122 cells [4]; Day 29 post implant, p.o. daily from Day 11: Compound 478 100 mg/kg",537.14 mm^3
same,Average Tumor Volumes,H2122 cells [4]; [13],547.06 mm^3
same,Average Tumor Volumes,H2122 cells [4]; [14],546.96 mm^3
same,tumor growth inhibition,"H2122 cells [4]; H2122 tumor bearing mice, Day 22 (Treatment Day 10), single agent, Compound 478 100 mg/kg, afatinib 12.5 mg/kg p.o. daily",85%
same,Average Tumor Volumes,KYSE-410 cells [5]; [7],307.30 mm^3
same,Average Tumor Volumes,KYSE-410 cells [5]; [8],274.64 mm^3
same,Average Tumor Volumes,"KYSE-410 cells [5]; Day 16 post implant, p.o. daily from Day 11: Compound 478 100 mg/kg",311.34 mm^3
same,Average Tumor Volumes,KYSE-410 cells [5]; [9],297.62 mm^3
same,Average Tumor Volumes,KYSE-410 cells [5]; [10],338.18 mm^3
same,Average Tumor Volumes,"KYSE-410 cells [5]; Day 23 post implant, p.o. daily from Day 11: Compound 478 100 mg/kg",320.42 mm^3
same,Average Tumor Volumes,KYSE-410 cells [5]; [11],358.68 mm^3
same,Average Tumor Volumes,KYSE-410 cells [5]; [12],459.20 mm^3
same,Average Tumor Volumes,"KYSE-410 cells [5]; Day 30 post implant, p.o. daily from Day 11: Compound 478 100 mg/kg",441.60 mm^3
same,Average Tumor Volumes,KYSE-410 cells [5]; [13],480.62 mm^3
same,Average Tumor Volumes,"KYSE-410 cells [5]; Day 37 post implant, p.o. daily from Day 11: Compound 478 100 mg/kg",525.86 mm^3
same,tumor growth inhibition,"KYSE-410 cells [5]; KYSE-410 tumor bearing mice, Day 37 (Treatment Day 27), single agent 100 mg/kg p.o. daily",64%
